Measured values reported in PMC8505367 (Clinical Pharmacokinetics, 2021).

Tests used:
plasma protein = conditions: cited from earlier work
[1] = assay type: in vivo, human; conditions: oral, post-dose fasting time 120 min, model-derived
[2] = assay type: in vivo, human; conditions: subjects with T2D, N = 55, oral, recommended dosing conditions; geometric mean of typical PK parameter values for each subject
[3] = reducing gastric pH with omeprazole; cited from earlier work

## CC[C@H](C)[C@H](NC(=O)[C@H](Cc1ccccc1)NC(=O)[C@H](CCC(=O)O)NC(=O)[C@H](CCCCNC(=O)COCCOCCNC(=O)COCCOCCNC(=O)CC[C@H](NC(=O)CCCCCCCCCCCCCCCCC(=O)O)C(=O)O)NC(=O)[C@H](C)NC(=O)[C@H](C)NC(=O)[C@H](CCC(N)=O)NC(=O)CNC(=O)[C@H](CCC(=O)O)NC(=O)[C@H](CC(C)C)NC(=O)[C@H](Cc1ccc(O)cc1)NC(=O)[C@H](CO)NC(=O)[C@H](CO)NC(=O)[C@@H](NC(=O)[C@H](CC(=O)O)NC(=O)[C@H](CO)NC(=O)[C@@H](NC(=O)[C@H](Cc1ccccc1)NC(=O)[C@@H](NC(=O)CNC(=O)[C@H](CCC(=O)O)NC(=O)C(C)(C)NC(=O)[C@@H](N)Cc1cnc[nH]1)[C@@H](C)O)[C@@H](C)O)C(C)C)C(=O)N[C@@H](C)C(=O)N[C@@H](Cc1c[nH]c2ccccc12)C(=O)N[C@@H](CC(C)C)C(=O)N[C@H](C(=O)N[C@@H](CCCNC(=N)N)C(=O)NCC(=O)N[C@@H](CCCNC(=N)N)C(=O)NCC(=O)O)C(C)C [semaglutide]
Plasma protein
  Plasma protein binding: > 99%
[1]
  Bioavailability, plateau with longer post-dose fasting time: around 1.4%
[2]
  ka (absorption rate): 2.09 h⁻¹
[3]
  Change in semaglutide exposure: small but not clinically relevant increase
